The text below walks through data of US10201617B2, “3-substituted piperidine-2, 6-diones and non-covalent complexes with albumin” (Zhuhai Beihai Biotech Co., Ltd., priority 2014, dated 2019).

The structures appear in SMILES notation.

A short description of series [1]: Persistence in plasma: incubation with human plasma at 37° C., LC-MS/MS. In kind it is in vitro ADME. To be noted: for Peak Area Ratio (Analyte/incubation sample): Human Plasma. The procedure: Test compounds and control (procaine) were incubated at a concentration of 10 μM with human plasma. […]
After quenching by acetonitrile, the plates were capped, vortexed, and centrifuged at 3000 rpm for 10 minutes. The supernatant was injected into LC-MS/MS.

The nature of series [2]: Persistence control: incubation in PBS buffer (pH 7.4) at 37° C., LC-MS/MS. In kind it is physicochemical. To be noted: for Peak Area Ratio (Analyte/incubation sample): PBS Buffer, 24 hr; for % Remaining after 24-hr Incubation at 37° C.: PBS buffer.
For the next series, the system named is CYP3A. Conditions: cited from earlier work.
The conditions of series [3]: regardless of pH; cited from earlier work.
A further series deals with T1, CYP1A2 (Homo sapiens, UniProt P05177).
T1 sequence (P05177 1-516): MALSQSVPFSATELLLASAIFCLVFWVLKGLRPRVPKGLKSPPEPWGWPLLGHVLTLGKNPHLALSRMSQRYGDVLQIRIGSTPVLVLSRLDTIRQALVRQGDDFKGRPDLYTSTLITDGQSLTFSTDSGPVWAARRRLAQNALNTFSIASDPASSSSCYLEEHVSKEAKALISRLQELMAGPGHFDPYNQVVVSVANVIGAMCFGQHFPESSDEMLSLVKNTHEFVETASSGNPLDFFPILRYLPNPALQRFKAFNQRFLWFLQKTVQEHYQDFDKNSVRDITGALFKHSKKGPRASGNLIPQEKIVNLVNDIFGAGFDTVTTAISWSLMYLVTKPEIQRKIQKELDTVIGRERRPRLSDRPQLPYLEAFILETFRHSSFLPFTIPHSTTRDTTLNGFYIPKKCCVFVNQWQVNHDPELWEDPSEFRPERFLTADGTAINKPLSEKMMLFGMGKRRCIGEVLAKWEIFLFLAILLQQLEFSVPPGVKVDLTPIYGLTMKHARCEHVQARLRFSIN
Conditions: cited from earlier work.

As to `CCN(CC)CCOC(=O)c1ccc(N)cc1` [Procaine, procaine], the “Peak Area Ratio (Analyte/incubation sample)” value is given as 0.311 in series [1] (0 hr, Replicate 1); 0.451 in series [1] (0 hr, Replicate 2); 0.0 in series [1] (24 hr, Replicate 1); 0.0 in series [1] (24 hr, Replicate 2); 0.413 in series [2] (Replicate 1); 0.419 in series [2] (Replicate 2). In addition, the “% Remaining after 24-hr Incubation at 37° C.” value in series [1] (human, plasma, 24 h, 10 μM) was found to be 0.0%; in series [2] (Average), 109%; in series [2] (Replicate 1) it was 108.40%; in series [2] (Replicate 2) it was 109.97%.
Regarding `Nc1cccc2c1C(=O)N(C1CCC(=O)NC1=O)C2=O` (stereo not shown) [pomalidomide], the “substrate of CYP3A liver enzyme” value with CYP3A is on record as “substrate”. Further, the solubility entry in series [3] was “about 0.01 mg/mL”. For the same compound, the “substrate of CYP1A2 liver enzyme” value at CYP1A2 is listed as “substrate”.
